{"source": "patent US7931742B2", "about": "“Biocidal Structural Barrier (BSB)” (BASF SE, priority 2005, dated 2011)", "test_system": "termites", "assay": "Anti-termite effectiveness of chlorfenapyr incorporated in a concrete block (barrier test after NF X41-541)", "format": "in vivo", "method": "A block of concrete, 10 cm high, with passages for the termites, is poured, incorporating the treatment product in the mixing water.\nAfter drying and an infiltration test, the test set-up and performance follow the standard NF X41-541. The barrier effect of the specimen is verified by evaluation of the mortality and penetration of the termites in the clean compartment containing blocks of wood. An evaluation of the blocks of wood following the scoring of EN NF 117 is performed at the end of the test."}
{"smiles": "CCOCn1c(-c2ccc(Cl)cc2)c(C#N)c(Br)c1C(F)(F)F", "note": "[chlorfenapyr]", "values": [{"measurement": "Barrier effect of treated concrete against termites", "setting": "concrete treated with chlorfenapyr, overall conclusion", "result": "effectively prevents termites from attacking a building"}, {"measurement": "Rate of survival %", "setting": "series A: concentration studied 0.05 % (m/m), retention in the concrete: product 261 ppm, chlorfenapyr 56 ppm, 132 g/m^3", "result": 0, "unit": "%"}, {"measurement": "Rate of survival %", "setting": "series B: concentration studied 0.1 % (m/m), retention in the concrete: product 521 ppm, chlorfenapyr 112 ppm, 265 g/m^3", "result": 0, "unit": "%"}, {"measurement": "Rate of survival %", "setting": "series C: concentration studied 0.3 % (m/m), retention in the concrete: product 1567 ppm, chlorfenapyr 337 ppm, 795 g/m^3", "result": 0, "unit": "%"}, {"measurement": "Rate of survival %", "setting": "series D: concentration studied 0.6 % (m/m), retention in the concrete: product 3132 ppm, chlorfenapyr 673 ppm, 1588 g/m^3", "result": 0, "unit": "%"}]}
